In ChEMBL document CHEMBL1158142, “Bionectins A-C, epidithiodioxopiperazines with anti-MRSA activity, from Bionectra byssicola F120” (2006):
Converted amounts (≈) assume the structure as drawn. The source made the active and inactive calls. The rule behind the calls is not given here.

How the values were obtained:
Staphylococcus aureus [1] = test: Antibacterial activity against Staphylococcus aureus 503 after 24 hrs; format: functional
Staphylococcus aureus [2] = test: Antibacterial activity against methicillin-resistant Staphylococcus aureus CCARM3506 after 24 hrs; format: functional
Staphylococcus aureus [3] = test: Antibacterial activity against Staphylococcus aureus RN4220 after 24 hrs; format: functional; details: RN4220, 24 h
Staphylococcus aureus [4] = test: Antibacterial activity against methicillin-sensitive Staphylococcus aureus CCARM3505 after 24 hrs; format: functional
Staphylococcus aureus [5] = test: Antibacterial activity against methicillin-resistant Staphylococcus aureus CCARM3167 after 24 hrs; format: functional
Staphylococcus aureus [6] = test: Antibacterial activity against methicillin-sensitive Staphylococcus aureus CCARM3519 after 24 hrs; format: functional
Staphylococcus aureus [7] = test: Antibacterial activity against methicillin-sensitive Staphylococcus aureus CCARM3519 up to 100 ug/mL after 24 hrs; format: functional, organism-based
Staphylococcus aureus [8] = test: Antibacterial activity against Staphylococcus aureus RN4220 up to 100 ug/mL after 24 hrs; format: functional, organism-based
Staphylococcus aureus [9] = test: Antibacterial activity against methicillin-resistant Staphylococcus aureus CCARM3506 up to 100 ug/mL after 24 hrs; format: functional, organism-based
Staphylococcus aureus [10] = test: Antibacterial activity against Staphylococcus aureus 503 up to 100 ug/mL after 24 hrs; format: functional, organism-based
Staphylococcus aureus [11] = test: Antibacterial activity against methicillin-sensitive Staphylococcus aureus CCARM3505 up to 100 ug/mL after 24 hrs; format: functional, organism-based
Staphylococcus aureus [12] = test: Antibacterial activity against methicillin-resistant Staphylococcus aureus CCARM3167 up to 100 ug/mL after 24 hrs; format: functional, organism-based

SMILES	MIC (Staphylococcus aureus [1]) [mg/L]	MIC (Staphylococcus aureus [2]) [mg/L]	MIC (Staphylococcus aureus [3]) [mg/L]	MIC (Staphylococcus aureus [4]) [mg/L]	MIC (Staphylococcus aureus [5]) [mg/L]	MIC (Staphylococcus aureus [6]) [mg/L]	Activity (Staphylococcus aureus [7])	Activity (Staphylococcus aureus [8])	Activity (Staphylococcus aureus [9])	Activity (Staphylococcus aureus [10])	Activity (Staphylococcus aureus [11])	Activity (Staphylococcus aureus [12])
CN[C@H](CC(C)C)C(=O)N[C@H]1C(=O)N[C@@H](CC(N)=O)C(=O)N[C@H]2C(=O)N[C@H]3C(=O)N[C@H](C(=O)N[C@H](C(=O)O)c4cc(O)cc(O)c4-c4cc3ccc4O)[C@H](O)c3ccc(c(Cl)c3)Oc3cc2cc(c3O[C@@H]2O[C@H](CO)[C@@H](O)[C@H](O)[C@H]2O[C@H]2C[C@](C)(N)[C@H](O)[C@H](C)O2)Oc2ccc(cc2Cl)[C@H]1O [VANCOMYCIN]	0.25 (≈ 0.173 µM)	–	–	–	–	–	–	–	–	–	–	–
CC(O)[C@@]12SS[C@]3(C(=O)N1C)[C@@H](O)[C@]1(c4c[nH]c5ccccc45)c4ccccc4N[C@@H]1N3C2=O (stereo not given in full) [BIONECTIN B]	30 (≈ 60.7 µM)	10 (≈ 20.2 µM)	30 (≈ 60.7 µM)	30 (≈ 60.7 µM)	10 (≈ 20.2 µM)	30 (≈ 60.7 µM)	–	–	–	–	–	–
CS[C@H]1C(=O)N2[C@H]3Nc4ccccc4[C@@]3(c3c[nH]c4ccccc34)[C@H](O)[C@]2(SC)C(=O)N1C	–	–	–	–	–	–	inactive	inactive	inactive	inactive	inactive	inactive
CN1C(=O)[C@]23SS[C@H]1C(=O)N2[C@H]1Nc2ccccc2[C@@]1(c1c[nH]c2ccccc12)[C@@H]3O [BIONECTIN A]	10 (≈ 22.2 µM)	30 (≈ 66.6 µM)	10 (≈ 22.2 µM)	10 (≈ 22.2 µM)	30 (≈ 66.6 µM)	10 (≈ 22.2 µM)	–	–	–	–	–	–
CC(O)[C@@]12SS[C@]3(C(=O)N1C)[C@@H](O)C1([C@@]45c6ccccc6N[C@@H]4N4C(=O)[C@]6(C(C)O)SS[C@]4(C(=O)N6C)[C@H]5O)c4ccccc4N[C@@H]1N3C2=O (stereo not given in full) [VERTICILLIN D]	3 (≈ 3.96 µM)	3 (≈ 3.96 µM)	3 (≈ 3.96 µM)	10 (≈ 13.2 µM)	3 (≈ 3.96 µM)	10 (≈ 13.2 µM)	–	–	–	–	–	–
